Experimental data as given in ChEMBL document CHEMBL1201862, “PubChem BioAssay data set” (2004).
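Test compounds were applied to cells in 96-well plates for 48 hours at 5 doses. GI50 = concentration required for 50% inhibition of growth.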 Active and inactive are the calls of the source. No stated cut-off is given here; in the data, active = GI50 up to about 1.1 µM and inactive = higher.

Legend:
Assay in all cases: NCI anticancer screen, dose series, 48 h
786-0 = system: 786-0
BT-549 = system: BT-549
CCRF-CEM = system: CCRF-CEM
DU-145 = system: DU-145
HCC 2998 = system: HCC 2998
HCT-116 = system: HCT-116
HCT-15 = system: HCT-15
HOP-92 = system: HOP-92
LOX IMVI = system: LOX IMVI
MCF7 = system: MCF7
MDA-MB-435 = system: MDA-MB-435
MOLT-4 = system: MOLT-4
NCI/ADR-RES = system: NCI/ADR-RES
OVCAR-5 = system: OVCAR-5
OVCAR-8 = system: OVCAR-8
PC-3 = system: PC-3
SF-539 = system: SF-539
SK-MEL-28 = system: SK-MEL-28
SK-OV-3 = system: SK-OV-3
SR = system: SR

Structure (SMILES): CC1=C(C(=S)Nc2ccc(Cl)c(C(=O)OC(C)C)c2)SCCO1
- GI50 (786-0): 16 µM (inactive)
- GI50 (BT-549): 17.7 µM (inactive)
- GI50 (CCRF-CEM): 18.2 µM (inactive)
- GI50 (DU-145): 20.3 µM (inactive)
- GI50 (HCC 2998): 14.7 µM (inactive)
- GI50 (HCT-116): 15.3 µM (inactive)
- GI50 (HCT-15): 17.1 µM
- GI50 (HOP-92): 18.7 µM (inactive)
- GI50 (LOX IMVI): 15.5 µM (inactive)
- GI50 (MCF7): 32.1 µM (inactive)
- GI50 (MDA-MB-435): 19.3 µM (inactive)
- GI50 (MOLT-4): 15.7 µM (inactive)
- GI50 (NCI/ADR-RES): 18.8 µM (inactive)
- GI50 (OVCAR-5): 34.6 µM (inactive)
- GI50 (OVCAR-8): 20 µM (inactive)
- GI50 (PC-3): 16.9 µM (inactive)
- GI50 (SF-539): 18.7 µM (inactive)
- GI50 (SK-MEL-28): 17.9 µM (inactive)
- GI50 (SK-OV-3): 20.4 µM (inactive)

Structure (SMILES): CC(=O)OCC1OC(n2c(N)c(C#N)c(-c3ccc(C)cc3)c(C#N)c2=S)C(OC(C)=O)C(OC(C)=O)C1OC(C)=O (centres undefined)
- GI50 (786-0): 15.7 µM (inactive)
- GI50 (BT-549): 37.3 µM (inactive)
- GI50 (CCRF-CEM): 35.2 µM (inactive)
- GI50 (DU-145): 15.4 µM (inactive)
- GI50 (HCC 2998): 16.9 µM (inactive)
- GI50 (HCT-116): 46.1 µM (inactive)
- GI50 (HCT-15): 38 µM
- GI50 (HOP-92): 15.2 µM (inactive)
- GI50 (LOX IMVI): 32.7 µM (inactive)
- GI50 (MCF7): 20.1 µM (inactive)
- GI50 (MDA-MB-435): 21.2 µM (inactive)
- GI50 (NCI/ADR-RES): 30 µM (inactive)
- GI50 (OVCAR-5): 53.5 µM (inactive)
- GI50 (OVCAR-8): 15.2 µM (inactive)
- GI50 (PC-3): 31.8 µM (inactive)
- GI50 (SF-539): 4.91 µM (inactive)
- GI50 (SK-MEL-28): 38.7 µM (inactive)
- GI50 (SK-OV-3): 24.5 µM (inactive)

Structure (SMILES): CC(O)(CCCCCl)c1nc2ccccc2s1 (centres undefined)
- GI50 (786-0): > 100 µM (inactive)
- GI50 (BT-549): 67.9 µM (inactive)
- GI50 (CCRF-CEM): > 100 µM (inactive)
- GI50 (DU-145): > 100 µM (inactive)
- GI50 (HCT-116): 47 µM (inactive)
- GI50 (HCT-15): > 100 µM
- GI50 (LOX IMVI): 48.4 µM (inactive)
- GI50 (MCF7): 71.8 µM (inactive)
- GI50 (MDA-MB-435): > 100 µM (inactive)
- GI50 (MOLT-4): 50.7 µM (inactive)
- GI50 (NCI/ADR-RES): 98.2 µM (inactive)
- GI50 (OVCAR-5): > 100 µM (inactive)
- GI50 (OVCAR-8): > 100 µM (inactive)
- GI50 (PC-3): 34.9 µM (inactive)
- GI50 (SF-539): > 100 µM (inactive)
- GI50 (SK-MEL-28): > 100 µM (inactive)
- GI50 (SK-OV-3): > 100 µM (inactive)
- GI50 (SR): 53 µM (inactive)

Structure (SMILES): O=c1cc(CBr)c2ccc(O)cc2o1
- GI50 (786-0): > 100 µM (inactive)
- GI50 (BT-549): 35.1 µM (inactive)
- GI50 (CCRF-CEM): 54.3 µM (inactive)
- GI50 (DU-145): 92 µM (inactive)
- GI50 (HCC 2998): 76.6 µM (inactive)
- GI50 (HCT-116): > 100 µM (inactive)
- GI50 (HCT-15): 71.4 µM
- GI50 (LOX IMVI): > 100 µM (inactive)
- GI50 (MCF7): 69.7 µM (inactive)
- GI50 (MDA-MB-435): 39 µM (inactive)
- GI50 (MOLT-4): 60 µM (inactive)
- GI50 (NCI/ADR-RES): 87.9 µM (inactive)
- GI50 (OVCAR-5): 8.39 µM (inactive)
- GI50 (OVCAR-8): 70.6 µM (inactive)
- GI50 (PC-3): 62.4 µM (inactive)
- GI50 (SF-539): > 100 µM (inactive)
- GI50 (SK-MEL-28): 80.4 µM (inactive)
- GI50 (SK-OV-3): 97.7 µM (inactive)
- GI50 (SR): 63 µM (inactive)

Structure (SMILES): Cc1ccc(/N=N/C(=N/NC(=O)c2cc(Cl)ccc2C(=O)c2ccccc2)c2ccc(N(CCC#N)CCC#N)cc2C)cc1
- GI50 (786-0): 10.4 µM (inactive)
- GI50 (BT-549): 15.4 µM (inactive)
- GI50 (CCRF-CEM): 3.17 µM (inactive)
- GI50 (DU-145): 11.5 µM (inactive)
- GI50 (HCC 2998): 13.8 µM (inactive)
- GI50 (HCT-116): 9.64 µM (inactive)
- GI50 (HCT-15): 7.55 µM
- GI50 (MCF7): 3.52 µM (inactive)
- GI50 (MDA-MB-435): 18.7 µM (inactive)
- GI50 (MOLT-4): 4.99 µM (inactive)
- GI50 (NCI/ADR-RES): 21.1 µM (inactive)
- GI50 (OVCAR-5): 21.3 µM (inactive)
- GI50 (OVCAR-8): 11 µM (inactive)
- GI50 (PC-3): 7.24 µM (inactive)
- GI50 (SK-MEL-28): 14.1 µM (inactive)
- GI50 (SK-OV-3): 8.09 µM (inactive)

Structure (SMILES): COc1ccc(/C=C(\NC(=O)c2ccccc2)C(=O)NN(C)c2ccnc3cc(Cl)ccc23)cc1OC
- GI50 (786-0): 27.6 µM (inactive)
- GI50 (BT-549): 20.4 µM (inactive)
- GI50 (DU-145): 27.2 µM (inactive)
- GI50 (HCT-116): 34.6 µM (inactive)
- GI50 (HCT-15): 24.7 µM
- GI50 (HOP-92): 21.4 µM (inactive)
- GI50 (LOX IMVI): 18.7 µM (inactive)
- GI50 (MCF7): 19.8 µM (inactive)
- GI50 (MDA-MB-435): 21.3 µM (inactive)
- GI50 (MOLT-4): 18.2 µM (inactive)
- GI50 (NCI/ADR-RES): 20.1 µM (inactive)
- GI50 (OVCAR-5): 45.9 µM (inactive)
- GI50 (OVCAR-8): 23.4 µM (inactive)
- GI50 (PC-3): 27.4 µM (inactive)
- GI50 (SF-539): 21.5 µM (inactive)
- GI50 (SK-MEL-28): 26 µM (inactive)
- GI50 (SK-OV-3): > 100 µM (inactive)
- GI50 (SR): 16.2 µM (inactive)

Structure (SMILES): C=C(CCOC)CCC1CCCCC(CN(C)C)C1=O (centres undefined)
- GI50 (786-0): > 100 µM (inactive)
- GI50 (BT-549): > 100 µM (inactive)
- GI50 (CCRF-CEM): > 100 µM (inactive)
- GI50 (DU-145): > 100 µM (inactive)
- GI50 (HCC 2998): > 100 µM (inactive)
- GI50 (HCT-116): > 100 µM (inactive)
- GI50 (HCT-15): > 100 µM
- GI50 (LOX IMVI): > 100 µM (inactive)
- GI50 (MCF7): > 100 µM (inactive)
- GI50 (MDA-MB-435): > 100 µM (inactive)
- GI50 (MOLT-4): > 100 µM (inactive)
- GI50 (NCI/ADR-RES): > 100 µM (inactive)
- GI50 (OVCAR-5): > 100 µM (inactive)
- GI50 (OVCAR-8): > 100 µM (inactive)
- GI50 (PC-3): > 100 µM (inactive)
- GI50 (SK-MEL-28): > 100 µM (inactive)
- GI50 (SK-OV-3): > 100 µM (inactive)
- GI50 (SR): > 100 µM (inactive)

Structure (SMILES): C[C@@H]1CC[C@H]2[C@H](C)C(OC3O[C@@H]4O[C@@]5(C)CC[C@H]6[C@H](C)CC[C@@H]([C@@H]3C)[C@@]46O5)O[C@@H]3O[C@@]4(C)CC[C@@H]1[C@]32O4 (some centres undefined)
- GI50 (786-0): > 100 µM (inactive)
- GI50 (BT-549): > 100 µM (inactive)
- GI50 (CCRF-CEM): > 100 µM (inactive)
- GI50 (DU-145): > 100 µM (inactive)
- GI50 (HCC 2998): > 100 µM (inactive)
- GI50 (HCT-116): > 100 µM (inactive)
- GI50 (HCT-15): > 100 µM
- GI50 (LOX IMVI): > 100 µM (inactive)
- GI50 (MCF7): > 100 µM (inactive)
- GI50 (MDA-MB-435): > 100 µM (inactive)
- GI50 (MOLT-4): > 100 µM (inactive)
- GI50 (OVCAR-5): > 100 µM (inactive)
- GI50 (OVCAR-8): > 100 µM (inactive)
- GI50 (PC-3): > 100 µM (inactive)
- GI50 (SF-539): > 100 µM (inactive)
- GI50 (SK-MEL-28): > 100 µM (inactive)
- GI50 (SK-OV-3): > 100 µM (inactive)
- GI50 (SR): > 100 µM (inactive)
